Results on one compound are retold here after US8754132B2 (The Board of Trustees of the University of Illinois, priority 2010, dated 2014).

For data set [1], the system named is PCP-disrupted PPI in mice. As to the kind of experiment: Prepulse inhibition (PPI) animal study, PCP-disrupted PPI. The settings on record: PCP 6 mg/kg i.p.
A further data set deals with 5-HT(2A) receptor (Homo sapiens, UniProt P28223). As to the kind of experiment: cell-based. The settings on record: Table 2, second section; percent of maximal activation by 5-HT; activation at 10 μM for compounds without EC50 value. On the set-up: expressed in transfected cells. The format is cell-based.
Chain of 5-HT(2A) receptor (P28223 whole entry): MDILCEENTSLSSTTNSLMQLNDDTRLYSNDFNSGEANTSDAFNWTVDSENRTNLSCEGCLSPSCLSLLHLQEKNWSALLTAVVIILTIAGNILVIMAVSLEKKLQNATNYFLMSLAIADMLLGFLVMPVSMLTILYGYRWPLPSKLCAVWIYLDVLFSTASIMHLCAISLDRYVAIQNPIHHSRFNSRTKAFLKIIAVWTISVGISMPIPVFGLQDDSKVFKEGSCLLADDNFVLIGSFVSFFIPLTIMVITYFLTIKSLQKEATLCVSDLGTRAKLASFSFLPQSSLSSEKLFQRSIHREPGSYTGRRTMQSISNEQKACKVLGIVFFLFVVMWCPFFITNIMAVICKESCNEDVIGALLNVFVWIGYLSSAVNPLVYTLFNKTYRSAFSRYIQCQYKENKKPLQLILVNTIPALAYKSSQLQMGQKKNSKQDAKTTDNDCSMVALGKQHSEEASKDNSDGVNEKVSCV
The target in another data set is 5-HT(2B) receptor (Homo sapiens, UniProt P41595). As to the kind of experiment: Calcium flux assay, stably transfected HEK-293 cells, 5-HT2B. The format is cell-based. On the set-up: expressed in transfected cells. Particulars: Table 2, second section; percent of maximal activation by 5-HT; activation at 10 μM for compounds without EC50 value. (In general: Calcium assays in cells follow changes in intracellular calcium, usually with a dye or a luminescent sensor.)
Chain of 5-HT(2B) receptor (P41595 whole entry): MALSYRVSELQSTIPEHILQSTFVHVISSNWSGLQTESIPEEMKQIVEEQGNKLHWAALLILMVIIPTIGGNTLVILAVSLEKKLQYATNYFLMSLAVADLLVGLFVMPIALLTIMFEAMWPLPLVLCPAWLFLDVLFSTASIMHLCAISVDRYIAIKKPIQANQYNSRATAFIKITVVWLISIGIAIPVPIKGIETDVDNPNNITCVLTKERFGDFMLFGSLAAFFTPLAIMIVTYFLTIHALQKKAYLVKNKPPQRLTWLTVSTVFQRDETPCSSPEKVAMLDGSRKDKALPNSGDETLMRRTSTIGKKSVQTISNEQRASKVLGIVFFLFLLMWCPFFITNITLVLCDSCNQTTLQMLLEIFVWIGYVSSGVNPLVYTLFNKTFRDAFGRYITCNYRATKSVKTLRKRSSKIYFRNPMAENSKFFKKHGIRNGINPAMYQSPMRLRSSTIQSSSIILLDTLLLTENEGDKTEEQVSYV

The nature of data set [2]: Stability in liver microsomes, human. The format is in vitro ADME. Particulars: NADPH, 37° C. In general terms: Microsomes from liver hold many membrane-bound enzymes, among them those of drug oxidation.
A further data set concerns the target CYP2D6 (Homo sapiens, UniProt P10635). The experiment in a line: Recombinant CYP inhibition, CYP2D6. Particulars: recombinant CYP2D6, probe dextromethorphan, substrate dextromethorphan, recombinant enzyme, read-out: % Inhibition at 10 μM, CYP 2D6. It counts as in vitro ADME.
Data set [3] is described as follows: Stability in liver microsomes, rat. It counts as in vitro ADME. The settings on record: NADPH, 37° C. The procedure: Stability in Liver Microsomes. For each sample to be investigated, the following was mixed: microsomes (50 μL, 0.5 mg/mL), MgCl2 solution (50 μL, 50 mM), phosphate buffer (250 μL, 100 mM), water (95 μL), test compound (+)-12 (5 μL, 200 μM). Verapamil was tested as a positive control. The reaction was performed at 37° C. and initiated by the addition of NADPH (50 μL, 10 mM) or, for the negative control, by the addition of water (50 μL). Aliquots of 50 μL were taken form the solution after 0, 15, 30, 45, and 60 minutes and the reaction stopped by the addition of 150 μL cold methanol to the aliquot. The samples were centrifuged (16000 rpm, 10 min). 100 μL supernatant was used for LC-MS-MS investigation. All incubations were performed in duplicate. Separation of the sample components was performed on a Waters ACQUITY UPLC C18 (2.1 mm×50 mm) column, using mobile phase mixtures between 0.1% formic acid in MeCN and 0.1% formic acid in water (elution rate 0.5 mL/min, column temperature 25° C.). […] The in vitro intrinsic clearance (in vitro CLint) was calculated according to: in vitro CLint=(0.693/t1/2)×(volume of incubation (μL)/amount of proteins (mg)).

The target of another data set is CYP3A4 (Homo sapiens, UniProt P08684). As to the kind of experiment: Recombinant CYP inhibition, CYP3A4. Particulars: recombinant enzyme, read-out: % Inhibition at 10 μM, CYP 3A4. The format is in vitro ADME.
Chain of CYP3A4 (P08684 whole entry): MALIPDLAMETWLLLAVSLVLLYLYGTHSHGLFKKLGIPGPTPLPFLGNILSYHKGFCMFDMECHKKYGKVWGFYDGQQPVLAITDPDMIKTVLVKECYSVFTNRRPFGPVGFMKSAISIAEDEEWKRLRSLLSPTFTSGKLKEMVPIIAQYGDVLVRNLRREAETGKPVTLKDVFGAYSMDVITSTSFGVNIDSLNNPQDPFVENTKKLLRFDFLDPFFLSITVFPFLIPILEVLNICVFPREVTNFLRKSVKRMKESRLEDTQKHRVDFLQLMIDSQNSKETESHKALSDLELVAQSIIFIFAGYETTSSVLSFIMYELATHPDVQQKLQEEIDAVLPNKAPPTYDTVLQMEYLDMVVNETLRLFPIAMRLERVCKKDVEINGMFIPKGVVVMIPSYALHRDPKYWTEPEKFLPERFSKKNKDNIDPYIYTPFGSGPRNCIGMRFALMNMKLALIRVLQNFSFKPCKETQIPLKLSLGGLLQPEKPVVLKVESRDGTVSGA
The next data set concerns the target CYP2C9 (Homo sapiens, UniProt P11712). The experiment in a line: Recombinant CYP inhibition, CYP2C9. The format is in vitro ADME. The settings on record: recombinant CYP2C9, probe tolbutamide, substrate tolbutamide, recombinant enzyme, read-out: % Inhibition at 10 μM, CYP 2C9.
For data set [4], the target named is T1, human 5-HT(2C) (INI) receptor (Homo sapiens, UniProt P28335).
T1 construct: expressed in transfected cells
T1 sequence (P28335 33-458): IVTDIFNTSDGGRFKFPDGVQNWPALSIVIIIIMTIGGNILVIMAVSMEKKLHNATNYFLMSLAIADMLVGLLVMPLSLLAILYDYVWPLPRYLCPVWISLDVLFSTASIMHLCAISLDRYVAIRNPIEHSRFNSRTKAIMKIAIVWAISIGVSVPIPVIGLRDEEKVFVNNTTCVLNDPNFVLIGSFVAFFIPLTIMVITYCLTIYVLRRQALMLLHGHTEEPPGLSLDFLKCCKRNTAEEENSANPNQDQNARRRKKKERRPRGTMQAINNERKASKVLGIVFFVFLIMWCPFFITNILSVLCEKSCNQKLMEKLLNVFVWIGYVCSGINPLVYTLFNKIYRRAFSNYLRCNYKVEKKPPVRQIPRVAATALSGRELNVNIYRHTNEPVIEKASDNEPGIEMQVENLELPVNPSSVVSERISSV
As to the kind of experiment: Calcium flux assay, stably transfected HEK-293 cells, 5-HT2C. Particulars: Table 2, second section. The format is cell-based.

Where a name gives a salt, the structure may show the parent alone. Read-outs that look alike come from different tables or passages of the source.

Chain of CYP2D6 (P10635 whole entry): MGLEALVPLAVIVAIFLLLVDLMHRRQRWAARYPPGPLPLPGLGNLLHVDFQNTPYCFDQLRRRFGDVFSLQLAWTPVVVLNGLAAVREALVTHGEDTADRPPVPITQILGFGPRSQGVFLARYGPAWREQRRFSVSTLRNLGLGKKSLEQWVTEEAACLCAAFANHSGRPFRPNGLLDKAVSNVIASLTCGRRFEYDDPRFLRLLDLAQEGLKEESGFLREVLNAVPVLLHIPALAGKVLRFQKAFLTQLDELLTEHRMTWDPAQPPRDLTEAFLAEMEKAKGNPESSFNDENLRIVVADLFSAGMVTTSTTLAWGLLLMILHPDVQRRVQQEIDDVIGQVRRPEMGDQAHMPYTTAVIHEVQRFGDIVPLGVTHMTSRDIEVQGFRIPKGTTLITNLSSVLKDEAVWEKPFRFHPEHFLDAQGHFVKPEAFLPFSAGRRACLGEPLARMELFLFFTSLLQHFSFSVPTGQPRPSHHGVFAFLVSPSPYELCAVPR
Chain of CYP2C9 (P11712 whole entry): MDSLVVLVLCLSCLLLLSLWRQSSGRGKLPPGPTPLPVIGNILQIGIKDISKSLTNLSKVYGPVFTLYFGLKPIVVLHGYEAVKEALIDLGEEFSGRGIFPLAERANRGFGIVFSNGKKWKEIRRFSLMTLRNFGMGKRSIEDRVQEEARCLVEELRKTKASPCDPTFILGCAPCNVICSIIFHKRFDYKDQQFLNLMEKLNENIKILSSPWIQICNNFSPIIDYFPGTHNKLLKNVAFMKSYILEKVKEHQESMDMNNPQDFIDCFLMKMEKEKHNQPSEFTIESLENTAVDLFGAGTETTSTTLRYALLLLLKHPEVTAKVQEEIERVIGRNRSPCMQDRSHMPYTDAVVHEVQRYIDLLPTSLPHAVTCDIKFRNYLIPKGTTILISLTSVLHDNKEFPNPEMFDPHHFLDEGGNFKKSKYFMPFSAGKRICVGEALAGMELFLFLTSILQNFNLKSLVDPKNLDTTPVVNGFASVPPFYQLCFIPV

As usually defined, the inhibition is how much of the control response was suppressed. As for `NC[C@H]1C[C@@H]1c1cc(F)ccc1OCC1CC1` [(+)-12, (+)-trans-(S,S)-[2-(2-Cyclopropylmethyloxy-5-fluorophenyl)cyclopropyl]methylamine Hydrochloride], the entries for the “normalization of PCP-disrupted PPI” value in [1] (5 mg/kg dose level) and in data set [1] (10 mg/kg) were “still effective” and “able to normalize PCP-disrupted PPI”, respectively. Besides, the “5-HT2A % Max ± SEM” value at 5-HT(2A) receptor is 29% ±. Besides, the “5-HT2B % Max ± SEM” value at 5-HT(2B) receptor is 21% ±. For the same compound, in [2], the “Microsomal stability (% remaining), human” value was determined as 90.50%. The inhibition at 20 min, 10 µM was determined as 27% at CYP2D6 and 19.6% at CYP2C9. The “Microsomal stability (% remaining), rat” value in data set [3] is listed as 66.03%. Besides, the inhibition at 5 min, 10 µM on CYP3A4 (recombinant CYP3A4, probe midazolam, substrate midazolam) was determined as 21.7%; on CYP3A4 (recombinant CYP3A4, probe testosterone, substrate testosterone) it was 25.1%. The “Selectivity 2A/2C” value in data set [4] (EC50 ratio) is 42. In addition, the “Selectivity 2B/2C” value in data set [4] (EC50 ratio) came to 14. Further, the “Emax 2C/2A” value in data set [4] (Emax ratio) is 2.5. Further, the “Emax 2C/2B” value in data set [4] (Emax ratio) is on record as 3.4. In data set [4] (percent of maximal activation by 5-HT), the “5-HT2C % Max ± SEM” value is reported as 71% ±.
